Results published in patent US11234960B2, “Compositions and methods for improving mitochondrial function and treating neurodegenerative diseases and cognitive disorders” (Amazentis SA, priority 2010, dated 2022).

Key:
[1] = tested on: AMP-activated protein kinase (AMPK); experiment: AMPK phosphorylation (Western blot) in C2C12 myotubes; type: cell-based; details: 1 hr, 50 μM, relative to control treated cells (FIG. 5A)
Method: C2C12 myoblasts were differentiated to myotubes by serum deprivation for 4 days (Canto et al. (2009) Nature. 458:1056-60). Myotubes were incubated for 1 hr with resveratrol (RSV), which served as a positive control, or ellagic acid (EA) or urolithin A (UL) at a final concentration of 50 μM (all dissolved in DMSO, final concentration 0.1%). DMSO was used as a control (final concentration of DMSO: 0.1%). At the end of the treatment, cells were washed 3 times with PBS, and AMP-activated protein kinase (AMPK) was assessed by Western blot. Following compound treatment, C2C12 cells were lysed in buffer containing phosphatase inhibitors, and protein concentration was determined using a standard Bradford assay. The equivalent of 25 μg of protein was used for separation on a 10% SDS-PAGE gel and subsequently transferred by standard Western blotting procedures. Antibodies directed to AMPK (Cell Signaling) and phosphorylated AMPK (P-AMPK, Cell Signaling) were used for detection.

[2] = tested on: high fat diet (HFD)-fed C57BL6/J mice; experiment: Body weight and body composition (EchoMRI) in high-fat diet fed mice; type: in vivo; details: for body weight gain: HFD-fed mice vs control HFD-fed mice, PE 140 mkd polyphenols gavage (FIG. 17A); for body weight gain / percentage fat mass (EchoMRI): urolithin A 55 mkd food admix, punicalagin 90 mkd gavage; for percentage of lean mass (EchoMRI) / percentage fat mass (EchoMRI): HFD-fed mice; for percentage of lean mass (EchoMRI): 5 weeks of treatment (FIG. 17C); for percentage fat mass (EchoMRI): 5 weeks of treatment, PE 140 mkd gavage (FIG. 17B)
From the text: Male C57BL6/J mice were purchased from Charles River Laboratory (L'Arbresle, France) at the age of 7 weeks and acclimatized to the animal facility for 2 weeks before initiation of experiments. Mice were housed in groups of 5 in standard housing conditions, with a 12 hr light-dark cycle and free access to food and water. Beginning at 9 weeks of age, mice were fed a high-fat diet (HFD) (60% kcal from fat; D12492; Research Diets Inc., New Brunswick, N.J., USA) for fourteen weeks. Body weight was monitored weekly.
Body composition was monitored by EchoMRI (Echo Medical Systems, Houston, Tex., USA) 5 weeks after the initiation of the treatment for high-fat diet fed mice and 2 weeks after the initiation of the treatment for chow diet fed mice. Animals were placed individually into a plastic cylinder and then introduced into an EchoMRI system for about 2 min for body composition scanning (lean and fat mass).

[3] = tested on: HFD-fed C57BL6/J mice; experiment: Indirect calorimetry (CLAMS) in HFD-fed mice; type: in vivo; details: for respiratory exchange ratio (RER): HFD-fed mice (FIGS. 22A, 22B); for energy expenditure (oxygen consumption, VO2): HFD-fed mice, 8 weeks after initiation of treatment (FIGS. 20A, 20B)
Method: Mice in different treatment groups were administered (i) urolithin A mixed with food (food admix) to reach a dosing of 55 mg/kg body weight/day (mkd); (ii) ellagic acid mixed with food (food admix) to reach a dosing of 75 mkd; (iii) punicalagin (gavage) to reach a dosing of 90 mkd; or (iv) pomegranate extract (PE) (gavage) to reach a dosing of 140 mkd of total polyphenols. […] For animals treated by gavage, gavage was performed daily (7 days/week) between 8:00 and 10:00 a.m.; compounds were mixed with saline solution (0.9% NaCl) and provided at a final volume of 5 mL/kg of body weight.

[4] = tested on: C57BL6/J mice fed standard chow diet; experiment: Indirect calorimetry (CLAMS) in standard chow diet fed mice; type: in vivo; details: for respiratory exchange ratio (RER): chow diet fed mice (FIGS. 21A, 21B); for energy expenditure (oxygen consumption, VO2): standard chow-fed mice, 2 weeks of treatment (FIGS. 19A, 19B)
Method: Mice in different treatment groups were administered (i) urolithin A mixed with food (food admix) to reach a dosing of 55 mg/kg body weight/day (mkd); (ii) ellagic acid mixed with food (food admix) to reach a dosing of 75 mkd; (iii) punicalagin (gavage) to reach a dosing of 90 mkd; or (iv) pomegranate extract (PE) (gavage) to reach a dosing of 140 mkd of total polyphenols. A typical pomegranate extract used in these experiments had the following composition: polyphenols, 140 mkd; punicalagin, 13.1 mkd; and ellagic acid, 13.2 mkd. For animals treated by gavage, gavage was performed daily (7 days/week) between 8:00 and 10:00 a.m.; compounds were mixed with saline solution (0.9% NaCl) and provided at a final volume of 5 mL/kg of body weight. Mice in high-fat control groups were fed with the same diet as the experimental animals. Mice in corresponding different control groups were administered either high-fat diet alone or high-fat diet plus daily gavage with vehicle (saline). Another control group of mice were fed standard chow diet alone.
Male C57BL6/J mice were grouped and treated as described in Example 7. In addition, however, basal energy expenditure of mice was measured by indirect calorimetry oxygen consumption, carbon dioxide production, and respiratory exchange ratio), 8 weeks after the initiation of treatment for the HFD-fed mice and 2 weeks after the initiation of treatment for standard show diet-fed mice, using the Comprehensive Laboratory Animal Monitoring System (CLAMS; Columbus Instruments, Columbus, Ohio, USA). Animals were first acclimatized for 22 h to CLAMS cages (room temperature 22° C.±1° C.) starting between 11 to 12 am. Then measurement was performed for at least 20 h in the same condition. Measurement included an entire dark cycle. Parameters measured during CLAMS were the following: (i) Oxygen consumption (VO2 in mL/kg/h): VO2 is directly correlated to energy expenditure; (ii) Carbon dioxide production (VCO2 in mL/kg/h); and (iii) Respiratory Exchange Ratio (RER): VCO2/VO2: RER is an indicator of the use of energy substrate. In a steady state, RER is equivalent to the Respiratory Quotient (RQ). Pure carbohydrate use gives RER=1, whereas pure fat burning yields an RER=0.7. A mixed diet gives a RER=0.85.
As stated above, in addition to oxygen consumption, indirect calorimetry also monitors carbon dioxide production. The ratio between carbon dioxide production (VCO2) and oxygen consumption (VO2) is called Respiratory Exchange Ratio (RER). RER is an excellent indicator of the use of energy substrates. In a steady state, RER is equivalent to the Respiratory Quotient (RQ). […]

[5] = tested on: HFD-fed C57BL6/J mice; experiment: Plasma biochemistry in HFD-fed mice; type: in vivo; details: HFD-fed mice treated for 14 weeks; for plasma levels of triglycerides: fasted 12 h (FIG. 23A); for plasma levels of free fatty acids: fasted 12 h (FIG. 23B)
Method: In addition, plasma biochemistry was performed 14 weeks after the initiation of the treatment using a standard automated clinical chemistry analyzer (Dimension Xpand, SIEMENS). Animals were fasted for 12 h (from 8 pm to 8 am) before blood collection. Approximately 500 μL of blood was collected from vena cava in anesthetized animals under isofluorane anesthesia. Blood was collected in heparinized tubes and immediately placed on wet ice. Plasma was prepared by centrifugation (1500×g, 15 min, 4° C.). Plasma samples were then transferred in clean 1.5 mL microtubes and stored at −80° C. until biochemical measurements were performed on a standard automated clinical chemistry analyzer (Dimension Xpand, SIEMENS) using corresponding kits.

| SMILES | levels of phosphorylation of AMPK (P-AMPK) [1] | body weight gain [2] | percentage of lean mass (EchoMRI) [2] | percentage fat mass (EchoMRI) [2] | respiratory exchange ratio (RER) [3] | energy expenditure (oxygen consumption, VO2) [3] | respiratory exchange ratio (RER) [4] | energy expenditure (oxygen consumption, VO2) [4] | plasma levels of triglycerides [5] | plasma levels of free fatty acids [5] |
| --- | --- | --- | --- | --- | --- | --- | --- | --- | --- | --- |
| O=c1oc2cc(O)ccc2c2ccc(O)cc12 [urolithin A, 3,8-Dihydroxydibenzo-α-pyrone] | increased | strong reduction of body weight gain | statistically significant increase in the percentage of lean mass | significantly reduced | significantly decreased RER | increased energy expenditure | significantly decreased RER | increased energy expenditure | statistically significant improvement | statistically significant improvement |
| O=c1oc2c(O)c(O)cc3c(=O)oc4c(O)c(O)cc1c4c23 [ellagic acid] | increased | – | – | – | – | – | significantly decreased RER | increased energy expenditure | – | – |
| O=C1O[C@H]2[C@@H]3OC(=O)c4cc(O)c(O)c(O)c4-c4c(O)c(O)c5oc(=O)c6c(c(O)c(O)c7oc(=O)c4c5c76)-c4c(cc(O)c(O)c4O)C(=O)OC[C@H]3OC(O)[C@@H]2OC(=O)c2cc(O)c(O)c(O)c2-c2c1cc(O)c(O)c2O (mixture of isomers) [punicalagin, 2,3 hexahydroxydiphenoyl-4,6-gallagylglucose] | – | strong reduction of body weight gain | statistically significant increase in the percentage of lean mass | significantly reduced | significantly decreased RER | increased energy expenditure | – | – | statistically significant improvement | statistically significant improvement |
